What was measured:
[1] = system: PGP1 SUV420H1 control and mutant organoids; experiment: Calcium imaging of spontaneous neuronal activity in intact brain organoids; type: cell-based, human; settings: 20 μM NBQX
[2] = system: human brain organoids; type: cell-based

| SMILES | calcium activity after blockade of excitatory synapses with NBQX, SUV420H1 mutant organoids ([1]; PGP1 SUV420H1+/- mutant organoids) | calcium activity after blockade of excitatory synapses with NBQX, control organoids ([1]; PGP1 control organoids) | network bursting upon bath application of NBQX ([1]; four month organoids (128 d.i.v.)) | trains of action potentials composing network bursting, sensitivity to TTX [2] |
| --- | --- | --- | --- | --- |
| NS(=O)(=O)c1cccc2c1c([N+](=O)[O-])cc1[nH]c(=O)c(=O)[nH]c12 [NBQX, 2,3-dioxo-6-nitro-1,2,3,4-tetrahydrobenzo[f]quinoxaline-7-sulfonamide] | no calcium transients | residual uncorrelated activity | abolished | – |
| NC1=N[C@H](O)[C@H]2[C@H]3O[C@]4(O)O[C@@H]([C@@H](O)[C@@]2(N1)[C@@H]4O)[C@]3(O)CO [TTX, tetrodotoxin] | – | – | – | sensitive |

Reference: US20240002936A1, “USE OF BRAIN ORGANOIDS AND SINGLE CELL GENOMICS TO UNDERSTAND AND TREAT NEURODEVELOPMENTAL AND NEUROPSYCHIATRIC DISORDERS” (President and Fellows of Harvard College, priority 2020, published 2024)
